Reference: US9278924B2, “5-nonyloxytryptamine and related intracellular PH acidifiers for the treatment and prevention of cancer” (THE JOHNS HOPKINS UNIVERSITY, priority 2011, dated 2016)
Counter-ions that a name gives are not always drawn. The star is where a group is joined. Cbz = O=C(OCc1ccccc1)*; CH2F = FC*

What was measured:
[1] = system: GBM neurosphere lines; assay: cAMP GLO assay of cellular cAMP levels; type: cell-based; conditions: three GBM neurosphere lines
Description: In this assay cAMP levels are inversely correlated with luminescence (RLU). Cyanopindolol is a Gα antagonist and is required for detection of 5HTR1B activity. Sumatriptan, another 5HTR1B agonist (similar to 5-NOTO), and forskolin {a known Gα agonist) were used as controls.
The Serotonin Receptors 5HTR1B and 5HTR1A are Not the Target Of 5-NOTO Action in GBM. 5-NOTO is not an FDA approved drug but its biological target is known. 5-NOTO is a specific agonist for the 5HTR1B serotonin receptor (400 times more specific for 5HTR1B then for 5HTR1A). 5HTR1B (as well as other 5HTR1 isoforms) are heterotrimeric G-protein coupled receptors which interact with Gα an inhibitor of adenylate cyclase. Therefore, we sought to determine if treatment with 5-NOTO will result in decreased cellular cAMP levels as activation of Gα should inhibit adenylate cydase, the enzyme which catalyzes the conversion of ATP to cAMP. To this end, cells were treated with cyanopindolol, an antagonist of 5HTR1B, which should increase adenylate cyclase activity (if 5HTR1B is functional), and either 5-NOTO or sumatriptan, the latter being similar to 5-NOTO, activating both 5HTR1B and 5HTR1A. […] Importantly, sumatriptan also had no effect on cellular cAMP levels, strengthening the notion that 5HTR1B (and likely 5HTR1A) have very little to no effect on cellular cAMP levels in the GBM models.

[2] = system: GBM-derived neurosphere cell lines; assay: MTT growth assay; type: cell-based; conditions: 72 h, read-out: inhibition of growth (viable cell mass, MTT)
Protocol: FIG. 2 depicts MTT growth assays for neurospheres treated with 5-NOTO. Cells were plated in 96-multiwell plates and treated with either DM50 (Control •) or 5-NOTO (at 1 uM ▪ and 10 μM ▴). MTT reagent was added to indirectly measure viable cell mass at each time point. Absorbance was measured wt 490 nm using an Epoch Microplate Spectrophotometer (BioTek).
5-NOTO is a Potent Inhibitor of Cancer Cell Growth. To test the hypothesis that as a pH acidifier, 5-NOTO should reduce cell proliferation, we treated three independent GBM-derived neurosphere cell lines with DMSO (control), 1 μM, and 10 μM 5-NOTO for three days. Accumulation of viable cell mass was measured using MTT growth assay (Promega). Absorbance (A490) was measured using an Epoch Microplate Spectrophotometer (Biotek) at the indicated time points.

[3] = system: GBM neurospheres; assay: Guava ViaCount cell viability, IC50 determination; type: cell-based; conditions: 48 hours, all neurospheres tested; read-out: IC50 (concentration required to kill 50% of the cells)
Protocol: Cells were treated for 48 hours with various concentrations of 5-NOTO and incubated for 48 hours in humidified incubator as which point, Guava Viacount reagent (Millipore) was used to assess the percentage of viable cells remaining in each treatment well. IC50 (concentration of drug required for 50% reduction in cell viability) was calculated using Graphpad 5.0 software package. The respective IC50 is indicated for each neurosphere line.
Determination of cytotoxic effects. We next sought to determine the concentration of 5-NOTO which is required to kill 50% of the cells (e.g. IC50). Cells were plated in 24-well plates at 25,000 cells/well and treated for 48 hours with either DMSO (control) or various concentration of 5-NOTO (FIG. 2). Guava PCA flow cytometry system was used with the Guava Viawunt reagent (Millipore) to determine cell viability. Data was analyzed using GraphPad 5.0 software package. IC50 was calculated using non linear regression.

[4] = system: 020913 GBM neurospheres; assay: Annexin V apoptosis assay; type: cell-based; conditions: 10 μM, 24 hours; DMSO 10-20%
Protocol: (§1) FIG. 4 depicts apoptosis analysis for GBM neurospheres treated with 5-NOTO for 24 hours. Cells were plated and then treated for 24 hours with DMSO (control), 1 μM and 10 μM 5-NOTO. Cells were then processed for Annexin V assay using the Nexin reagent (Millipore) and % Annexin positive cells was determined using flow cytometry.
(§2) 5-NOTO Induces Apoptosis in GBM Neurospheres. To ascertain that 5-NOTO induces apoptosis, cells were treated with DMSO (control), 1 μM, and 10 μM 5-NOTO for 24 hours at which point cells were processed for Annexin V apoptosis assay (Millipore), which is a simple and effective method to detect one of the earliest events in apoptosis, the externalization of phosphatidylserine in living cells. […] Higher levels of 5-NOTO (100 μM) eliminated the vast majority of viable cells (80-90%) 48 hours post treatment (Data not shown)).

[5] = system: 040622 GBM neurospheres; assay: Annexin V apoptosis assay; type: cell-based; conditions: 10 μM, 24 hours; DMSO 10-20%
Protocol: as §1, §2

[6] = system: 040821 GBM neurospheres; assay: Annexin V apoptosis assay; type: cell-based; conditions: 10 μM, 24 hours; DMSO 10-20%
Protocol: as §1, §2

[7] = system: GBM neurospheres; assay: Elimination of viable cells at high 5-NOTO level; type: cell-based; conditions: 48 h, read-out: viable cells eliminated
Protocol: as §2

[8] = system: 020913 neurospheres; assay: ATPlite luminescence assay of cellular ATP; type: cell-based; conditions: 1 μM and 10 μM, 1 or 3 hours
Protocol: Cells were incubated for either 1 or 3 hours in the presence of DMSO (control) or 5-NOTO (1 μM and 10 μM), ATP levels were determined using ATPlite Luminescence Assay System (PerkinElmer) according to manufacturer instructions.
5-NOTO Induces Rapid Necrosis in GBM Neurospheres. One of the classical features of necrotic cells is rapid and significant drop in intracellular ATP levels. The effect of 5-NOTO on ATP release was assayed at 1 hr and 3 hr post-treatment as follows. Briefly, 020913 neurospheres were triturated to a single-cell suspension and 20,000 cells were plated per well. Cells were plated in triplicates for vehicle alone, 1 μM 5-NOTO, and 10 μM 5-NOTO. At each time point, 100 μl of ATPlite 1-step reagent (Perkin Elmer) was added to each well and incubated with shaking for 2 minutes. After dark adaptation for 10 minutes, the samples were read using a microplate reader (Perkin Elmer). Readings were averaged and the percent differences in ATP release between treated and vehicle alone were calculated (RLU). This experiment was performed in triplicate with similar results (FIG. 6).

[9] = system: 040622 GBM neurospheres; assay: Apoptosis/necrosis evaluation with Guava Nexin reagent, 30 minutes; type: cell-based
Protocol: Cells were treated with DMSO (control), the multi caspase inhibitor Z-VAD-FMK (20 μM), 5-NOTO (10 μM) or the latter two in combination. Guava Nexin assay reagent was used to determine Viable (black), apoptotic (yellow), and necrotic/apoptotic (Red) cell fractions.
To test necrotic cell death directly, cells were treated with DMSO (control) or 10 μM 5-NOTO for 30 minutes followed by apoptosis/necrosis evaluation using Guava PCA flow cytometer and Nexin reagent (Millipore). […] Similar results were documented for 020913 and 040821 neurospheres (not shown).

[10] = Guava ViaCount viability assay; type: cell-based; conditions: human, uveal melanoma cell line OCM1, read-out: percentage of viable cells
Protocol: (§3) Cells were plated in 24-well plates and treated with DMSO or t 10 μM 5-NOTO. 48 hours later, cell viability was determined using Guava PCA flow cytometer with Guava ViaCount reagent.
(§4) We next sought to examine if 5-NOTO is generally cytotoxic or if its cytotoxicity may be specific to some cancer types. To this end, we examined the apoptotic induction in a uveal melanoma cell line, OCM 1. Cells were treated for 48 hours with 10 μM of 5-NOTO followed by Viacount assay. 5-NOTO had no effect on viability of OCM1 as the percentage of viable cells remained greater than 90% (FIG. 8). In contrast, percent viability in 020913 neurospheres treated with 10 μM 5-NOTO was only 10%.

[11] = system: GBM-derived neurosphere line 020913; assay: Guava ViaCount viability assay; type: cell-based; conditions: 48 h, read-out: percent viability
Protocol: as §3, §4

[12] = system: GBM neurospheres 020913; assay: Necrosis by Nexin staining and flow cytometry, 90 minutes; type: cell-based; conditions: 10 μM, DMSO 13%
Protocol: (§5) FIG. 9 depicts induction of necrotic cell death by 5-NOTO. GBM neurospheres 020913 and 040622 and normal neural stem cells immortalized with v-Myc (VNSC) were treated with DMSO (control, black bars) or with 10 μM 5-NOTO (red bars). Cells were treated for 90 minutes and then processed for viability assay using Nexin staining % Necrosis was determined by flow cytometry. […] VNSCs on the other hand were completely resistant to 5-NOTO showing 26% and 25% in DMSO and 5-NOTO treatments, respectively.
as §5, with “Induction” for “FIG. 9 depicts induction”, “Necrotic Cell Death” for “necrotic cell death”, “5-NOTO.” for “5-NOTO (red bars).”

[13] = system: GBM neurospheres 040622; assay: as above; type: cell-based; conditions: 10 μM, DMSO 5%
Protocol: as §5
as §5, with “Induction” for “FIG. 9 depicts induction”, “Necrotic Cell Death” for “necrotic cell death”, “5-NOTO.” for “5-NOTO (red bars).”

[14] = system: normal neural stem cells immortalized with v-Myc (VNSC); assay: as above; type: cell-based; conditions: 10 μM, DMSO 26%
Protocol: as §5
as §5, with “Induction” for “FIG. 9 depicts induction”, “Necrotic Cell Death” for “necrotic cell death”, “5-NOTO.” for “5-NOTO (red bars).”

[15] = target: 5HTR1B serotonin receptor (Homo sapiens, UniProt P28222); conditions: agonist; cited from earlier work
Chain of 5HTR1B serotonin receptor (P28222 whole entry): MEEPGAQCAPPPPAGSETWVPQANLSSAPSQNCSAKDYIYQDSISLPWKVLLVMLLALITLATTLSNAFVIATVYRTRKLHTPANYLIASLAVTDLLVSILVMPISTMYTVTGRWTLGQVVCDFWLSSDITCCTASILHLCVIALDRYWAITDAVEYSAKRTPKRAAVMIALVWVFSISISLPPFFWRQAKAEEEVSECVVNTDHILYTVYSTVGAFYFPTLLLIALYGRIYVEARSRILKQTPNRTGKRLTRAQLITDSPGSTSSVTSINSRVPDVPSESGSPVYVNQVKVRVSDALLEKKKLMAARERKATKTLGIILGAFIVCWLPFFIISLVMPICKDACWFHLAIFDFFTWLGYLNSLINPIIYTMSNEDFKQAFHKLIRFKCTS

Compound: CNS(=O)(=O)Cc1ccc2[nH]cc(CCN(C)C)c2c1 [sumatriptan]
- effect on cellular cAMP levels [1]: no effect

Compound: CCCCCCCCCOc1ccc2[nH]cc(CCN)c2c1 [5-NOTO, 5-nonyloxytryptamine oxalate]
- cytotoxicity at 10 µM [2]: > 90%
- IC50 [3]: ~10 µM
- apoptotic cell fraction (Annexin V positive) [4]: > 80%
- apoptotic cell fraction (Annexin V positive) [5]: more than 60%
- apoptotic cell fraction (Annexin V positive) [6]: > 70%
- cytotoxicity at 100 µM [7]: 80 to 90%
- effect on cellular cAMP levels [1]: not affected
- effect on cellular ATP levels [8]: depletes cellular ATP levels in a time and dose dependent fashion
- necrotic/dead fraction ([9]; 10 μM, 30 minutes, DMSO 15.83%): 54.17%
- viability at 48 h, 10 µM [10]: > 90%
- viability at 10 µM [11]: 10%
- % necrosis [12]: 56%
- % necrosis [13]: 65%
- % necrosis [14]: 25%
- specificity for 5HTR1B over 5HTR1A [15]: 400 times

Compound: Cbz-Val-Ala-Asp-CH2F [reference compound]
- effect on 5-NOTO-induced necrotic/dead cell fraction ([9]; pre-treatment with 20 μM Z-VAD-FMK, then 10 μM 5-NOTO): no effect

Compound: CC(C)(C)NCC(O)COc1cccc2[nH]c(C#N)cc12 (stereo not drawn) [Cyanopindolol, cyanopindolol]
- effect on cellular cAMP levels [1]: not affected
